Where two headings read alike, the source gives them in different places.
Tests used:
C57BL/6J mice [1] = test: Cecal ligation puncture (CLP) model; conditions: CPT 30 mg/kg i.v. 6 hours and twice at day 2, 60 mg/kg i.p. day 3 post-surgery
[2] = test system: Legionella pneumophila serogroup 1; conditions: guinea pig, in vivo
[3] = test system: GM-CSF, IL-1β, IL-6 and TNFα in mouse serum; test: Serum cytokines 4 hours after LPS injection; type: in vivo; conditions: mice
[4] = test system: RNAPII and Top1 at transcriptional start sites; type: cell-based; conditions: A549, PR8ΔNS1
C57BL/6J mice [5] = test: LPS-induced septic shock model; type: in vivo, mouse; conditions: LPS 10 mg/kg i.p., CPT 30 mg/kg 30 minutes before and one hour after LPS
spleen of C57BL/6J mice = conditions: LPS+CPT, 90 minutes after LPS

| SMILES | DNA damage (H2AX staining) at the concentration used (A549 cells; A549, 0.5 μM CPT, 100 nM TPT, 6 hours p.i.) | concentration at which DNA damage was detectable, relative to the concentration selected (A549 cells; A549, selected 0.5 μM CPT, 100 nM TPT) [times higher] | survival following CLP (C57BL/6J mice [1]) | survival rates [2] | time to death relative to the control group [2] | pro-inflammatory genes and cytokine expression (serum titers) [3] | RNAPII at PAMP-induced genes [4] | survival in lethal endotoxic (septic) shock (C57BL/6J mice [5]) | cell death in vivo (Live/Dead dye, spleen) (spleen of C57BL/6J mice) | inflammatory gene transcription in vivo (spleen) (spleen of C57BL/6J mice) | concentration at which DNA damage was detectable, relative to the concentration selected (A549 cells; human) [times higher] |
| --- | --- | --- | --- | --- | --- | --- | --- | --- | --- | --- | --- |
| CC[C@@]1(O)C(=O)OCc2c1cc1n(c2=O)Cc2cc3ccccc3nc2-1 [CPT, Camptothecin] | neither TPT- nor CPT-treated cells displayed DNA damage | 20 | improved survival | improved survival rates | delay of death | suppression | suppress | rescued animals from lethal endotoxic shock | without inducing cell death | inhibits |  |
| CC[C@@]1(O)C(=O)OCc2c1cc1n(c2=O)Cc2cc3c(CN(C)C)c(O)ccc3nc2-1 [TPT, Topotecan] |  |  |  |  |  |  | suppress |  |  |  | 100 |

Reference: patent US11173154B2 (priority 2015, dated 2021)
